According to paper PMC5407626 (PLoS ONE, 2017):
“And” between values parts separate entries of the source, which are not always exact repeats. Equal entries are not always repeated.

Columns and labels:
[1] = molecular target: T1, DES1 (Homo sapiens, UniProt O15121); test: DES1 activity in ARPE-19 cells (dihydroceramide/ceramide ratio, LC/MS); assay type: cell-based; design: DHCER (C18) / CER (C18) / DHCER (C16) / CER (C16): unit not given here; conditions: 10 μM, 24 h; for MEAN RATIO (DH / C) C16 / MEAN RATIO C18 DHCER/CER: mean of 3; for MEAN RATIO (DH / C) C16: DMSO 0.08; for MEAN RATIO C18 DHCER/CER: DMSO 0.289; for increase in dihydroceramide/ceramide ratio, C18 ceramide: compared to DMSO control
T1 construct: endogenous in cells; host or cells: ARPE-19
T1 sequence (O15121 1-323): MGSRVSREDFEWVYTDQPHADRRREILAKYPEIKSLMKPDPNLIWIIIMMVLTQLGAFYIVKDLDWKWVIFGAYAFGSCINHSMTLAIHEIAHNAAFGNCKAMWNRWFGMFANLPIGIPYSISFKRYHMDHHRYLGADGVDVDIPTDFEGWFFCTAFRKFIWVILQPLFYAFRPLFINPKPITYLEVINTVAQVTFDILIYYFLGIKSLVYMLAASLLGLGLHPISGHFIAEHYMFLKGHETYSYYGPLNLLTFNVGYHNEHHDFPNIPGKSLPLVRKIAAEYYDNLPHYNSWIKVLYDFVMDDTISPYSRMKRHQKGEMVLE
Experimental: ARPE-19 cells were seeded onto tissue culture plates at a density of 2x10^5 cells/ml in complete medium and allowed to grow overnight. Cells were then treated with retinoids (10 μM) or vehicle (control) for 24 hours in a 37°C, 5% CO2 incubator at which time cells were harvested and total lipids were extracted into methyl-tert-butyl ether (MTBE) using the method of Matyash et al.. Extracted lipids normalized to total protein as described were subjected to liquid chromatography mass spectrometry (LC/MS) to determine the sphingolipid content in treated ARPE-19 cells. LC/MS analysis was performed using a Waters 2695 LC system coupled to an AB Sciex API2000 triple quadrupole mass spectrometer. […] The mass spectral analysis of the sphingolipid species was performed using electrospray ionization in the positive ion mode with multiple reaction monitoring (MRM). The following compound-specific transitions for precursor and characteristic product ions were used: 538 → 264 for C16 Ceramide (Cer); 540 → 266 for C16 dihydroceramide (DHCer); 566 →264 for C18 Cer; and 568 → 266 for C18 DHCer. Data was acquired and analyzed using Analyst software v 1.5 (AB Sciex).
The ratio of substrate to product for C16 and C18 ceramides (dihydroceramide/ceramide) in the presence of DMSO or inhibitors was determined by LC/MS.
Lipids were extracted from one 100 mm Petri dish for each biological replicate and subjected to mass spectrometry analysis. Data plotted as means±standard deviation; n = 3.

[2] = molecular target: T2, SCD1 (Homo sapiens, UniProt O00767); test: SCD1 activity in ARPE-19 cells (conversion of methyl-D3 palmitic acid to methyl-D3 palmitoleic acid, LC/MS); assay type: cell-based; conditions: for Palmitate (AUC) / Ratio (16:0 / 16:1) / Palmitoleic Acid (AUC): 10 μM 16 h, then 50 μM D3-palmitic acid 5 h, single samples; for Mean Ratio (16:0 / 16:1) / effect on SCD1 activity: 10 μM; for Mean Ratio (16:0 / 16:1): mean of 3 samples, DMSO 8.884; for effect on SCD1 activity: ARPE-19 cells
T2 construct: endogenous in cells; host or cells: ARPE-19
T2 sequence (O00767 1-359): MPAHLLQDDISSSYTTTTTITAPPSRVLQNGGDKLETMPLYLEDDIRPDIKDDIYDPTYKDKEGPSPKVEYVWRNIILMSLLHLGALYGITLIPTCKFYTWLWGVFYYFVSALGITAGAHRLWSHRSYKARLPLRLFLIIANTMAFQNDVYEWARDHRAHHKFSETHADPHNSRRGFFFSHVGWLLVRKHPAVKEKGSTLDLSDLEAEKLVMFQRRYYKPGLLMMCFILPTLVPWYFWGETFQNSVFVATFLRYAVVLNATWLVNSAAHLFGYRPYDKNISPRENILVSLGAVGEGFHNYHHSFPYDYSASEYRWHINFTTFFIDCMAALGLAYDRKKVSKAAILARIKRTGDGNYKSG
Experimental: Compounds were dissolved in dimethyl sulfoxide (DMSO) and then added to the cell culture medium. Cells designated as control received an equal amount of dimethyl sulfoxide. After 16 h, cells were incubated with 50 μM palmitic acid triply deuterated (D3) on the methyl group (Cambridge Isotope Laboratories, Tewksbury, MA) for an additional 5 h before harvesting.
Cells were detached from culture plates using 0.05% Trypsin-EDTA, washed with PBS, and pelleted. Cell pellets were resuspended in 450 μl Cell Lysis Buffer (Cell Signaling Technology, Danvers, MA) then sonicated on ice until uniformly dispersed. An aliquot (50 μl) of the dispersed cell suspension was used for protein quantitation, and the remaining 400 μl was used for lipid extraction as follows. Samples were spiked with a small volume of pentadecanoic acid (in CHCl3) as internal standard, and were then subjected to saponification (by addition of an equal volume of 0.6 M methanolic KOH and incubating at 72°C for 15 minutes). Following saponification, samples were acidified by addition of 100 μl formic acid. The acidified mixture was extracted twice with 1 ml chloroform to recover free fatty acids. The chloroform extracts were pooled, solvent was evaporated under argon at 37°C, and the residue was resolubilized in 100 μl chloroform/methanol (1:4) for analysis by liquid chromatography mass spectrometry (LC/MS) using a modification of the procedures of Dillon et al.. The LC-MS system consisted of a 1200 Series Capillary LC (Agilent, Santa Clara, CA) coupled to a Micromass Q-Tof micro mass spectrometer (Waters Corp., Milford, MA) equipped with an electrospray ionization source. Separation of fatty acids was achieved by isocratic elution on a PLRP-S polymeric reversed-phase column (100 Å, 3 μm, 2.1 x 150 mm; Agilent) heated to 65°C. A mobile phase consisting of 25% acetonitrile:chloroform (1:1), 40% methanol, 25% water, 10% 10 mM ammonium acetate was run at a flow rate of 0.1 ml/min. The mass spectral analysis of the fatty acids was performed in the negative ion mode using the following instrument settings: capillary voltage, 1600; sample cone voltage, 40; cone gas flow, 40 L/hr; desolvation gas flow, 400 L/hr; source temperature, 80°C; desolvation temperature, 100°C. Data was then analyzed using MassLynx software v 4.1 (Waters) by extracting the ion chromatograms of the labeled palmitic and palmitoleic acid peaks and measuring peak area.
Cell lysates were analyzed by Western blotting using mouse monoclonal antibody against SCD1 (upper panel) in comparison with immunoreactivity to α-tubulin which was employed as a loading control (lower panel) and densitometry for each lane was performed and analyzed by ImageJ to provide the SCD1/α-tubulin ratio for each lane. […] Free fatty acids present in lipid extracts were analyzed by LC/MS and SCD1 activity, measured by the conversion of methyl-D3 palmitic acid to methyl-D3 palmitoleic acid, was determined. […] Lipids were extracted from two 100 mm Petri dishes and combined for mass spectrometry analysis. Data plotted as means ± standard deviation; n = 3. […] They are given here as printed results in cells, but it is uncertain whether they fall under the exclusion for gels and blots. / Panel A: the Control lane (1.00) is left out because it is not a substance.

Structure (SMILES) | effect on DES1 activity / substrate accumulation [1] | MEAN RATIO (DH / C) C16 [1] | MEAN RATIO C18 DHCER/CER [1] | CER (C16) ([1]; single samples) | CER (C18) ([1]; single samples) | Ceramide Content, C16 CER ([1]; single samples) | Ceramide Content, C18 CER ([1]; single samples) | Ceramide Content, C18 DHCER ([1]; single samples) | DHCER (C18) ([1]; single samples) | Mass Injected, C16 CER ([1]; single samples) | Mass Injected, C18 CER ([1]; single samples) | Mass Injected, C18 DHCER ([1]; single samples) | RATIO C18 DHCER/CER ([1]; single samples) | Palmitate (AUC) [2] | Ratio (16:0 / 16:1) [2] | Mean Ratio (16:0 / 16:1) [2] | effect on SCD1 activity [2] | increase in dihydroceramide/ceramide ratio, C18 ceramide [1] | Palmitoleic Acid (AUC) [2] | also measured
COc1ccc(NC(=O)/C=C(C)/C=C/C=C(C)/C=C/C2=C(C)CCCC2(C)C)cc1 [MPR, N-[4-methoxyphenyl]retinamide] | do not lead to overaccumulation of substrate | 0.08 | 0.338 and 0.3375 | 20.40 and 20.30 and 18.55 | 14.65 and 15.00 and 13.65 | 20.40 ng and 20.30 ng and 18.55 ng | 14.65 ng and 15.00 ng and 13.65 ng | 5.30 ng and 4.97 ng and 4.35 ng | 5.30 and 4.97 | 4.08 ng and 4.06 ng and 3.71 ng | 2.93 ng and 3.00 ng and 2.73 ng | 1.06 ng and 0.99 ng and 0.87 ng | 0.362 and 0.331 and 0.319 | 2368.01 and 2526.72 and 1327.38 | 8.882 and 7.657 and 8.556 | 8.365 | no inhibitory effect on SCD1 activity at all |  |  | 
CC1=C(/C=C/C(C)=C/C=C/C(C)=C/C(=O)Nc2ccc(O)cc2)C(C)(C)CCC1=O [3-keto-HPR, 4-oxo-N-(4-hydroxyphenyl)retinamide] | inhibit DES1 activity | 0.66 |  | 25.15 and 24.70 and 25.05 | 14.35 and 14.50 and 14.55 | 25.15 ng and 24.70 ng and 25.05 ng | 14.35 ng and 14.50 ng and 14.55 ng | 9.70 ng and 11.25 ng | 9.70 and 11.25 | 5.03 ng and 4.94 ng and 5.01 ng | 2.87 ng and 2.90 ng and 2.91 ng | 1.94 ng and 2.25 ng | 0.676 and 0.776 and 0.667 | 1476.16 and 1271.38 and 1913.30 | 84.064 and 126.254 and 100.278 | 103.532 | effective inhibitors of SCD1 activity | ~ 3 fold | 17.56 and 10.07 and 19.08 | MEAN RATIO C18 DHCER/CER ([1]; listed as 3-KETO-HPR): 0.7062; MEAN RATIO C18 DHCER/CER ([1]; listed as KETO): 0.706; Ceramide Content, C16 DHCER ([1]; single samples): 19.55 ng and 15.70 ng and 14.55 ng; DHCER (C16) ([1]; single samples): 19.55 and 15.70 and 14.55; Mass Injected, C16 DHCER ([1]; single samples): 3.910 ng and 3.140 ng and 2.910 ng; RATIO (DH / C) C16 ([1]; single samples): 0.78 and 0.64 and 0.58
O=C(O)c1ccccc1NC(=O)N1CCC(c2ccccc2C(F)(F)F)CC1 [A1120] | do not lead to overaccumulation of substrate | 0.07 | 0.153 and 0.1528 | 18.30 and 24.15 and 18.55 | 11.60 and 16.65 and 11.05 | 18.30 ng and 24.15 ng and 18.55 ng | 11.60 ng and 16.65 ng and 11.05 ng |  |  | 3.66 ng and 4.83 ng and 3.71 ng | 2.32 ng and 3.33 ng and 2.21 ng |  | 0.136 and 0.202 and 0.120 | 625.27 and 963.80 and 854.94 | 8.445 and 8.941 and 7.639 | 8.342 | no inhibitory effect on SCD1 activity at all | ~ 2 fold | 74.04 and 107.80 and 111.92 | 
CC1=C(/C=C/C(C)=C/C=C/C(C)=C/C(=O)Nc2ccc(O)cc2)C(C)(C)CCC1 [fenretinide, N-[4-hydroxyphenyl]retinamide] | inhibit DES1 activity |  |  |  |  |  |  |  |  |  |  |  |  |  |  |  | effective inhibitors of SCD1 activity |  |  | CER (C16) ([1]; single samples, listed as 4HPR): 17.20 and 18.50 and 17.10; CER (C18) ([1]; single samples, listed as 4HPR): 12.80 and 11.80 and 11.95; Ceramide Content, C16 CER ([1]; single samples, listed as 4HPR): 17.20 ng and 18.50 ng and 17.10 ng; Ceramide Content, C16 DHCER ([1]; single samples, listed as 4HPR): 6.15 ng and 4.01 ng and 5.75 ng; Ceramide Content, C18 CER ([1]; single samples, listed as 4HPR): 12.80 ng and 11.80 ng and 11.95 ng; Ceramide Content, C18 DHCER ([1]; single samples, listed as 4HPR): 9.30 ng and 7.50 ng and 7.25 ng; DHCER (C16) ([1]; single samples, listed as 4HPR): 5.75 and 6.15 and 4.01; DHCER (C18) ([1]; single samples, listed as 4HPR): 9.30 and 7.50 and 7.25; Mass Injected, C16 CER ([1]; single samples, listed as 4HPR): 3.44 ng and 3.70 ng and 3.42 ng; Mass Injected, C16 DHCER ([1]; single samples, listed as 4HPR): 1.230 ng and 0.801 ng and 1.150 ng; Mass Injected, C18 CER ([1]; single samples, listed as 4HPR): 2.56 ng and 2.36 ng and 2.39 ng; Mass Injected, C18 DHCER ([1]; single samples, listed as 4HPR): 1.86 ng and 1.50 ng and 1.45 ng; Palmitate (AUC) ([2]; listed as 4HPR): 1258.94 and 1398.36 and 1783.91; Palmitoleic Acid (AUC) ([2]; listed as 4HPR): 12.20 and 15.08 and 14.79
